# Reference: PubChem BioAssay (NCI)
# Several values for one entry are separate records, joined by “and”; a condition that tells them apart may be missing. Identical values can stand only once.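 Step 1: Grow cells in 96-well plates. Step 2: Expose to compound for 48 hours at 5 concentrations. Step 3: Interpolate endpoints linearly; if unreached, use highest concentration. At the GI50, growth is halved. TGI: concentration producing complete growth inhibition.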
# Assays:
# Experiment in all cases: NCI-60 cell line screen, 48 h
# MDA-MB-231 breast = system: MDA-MB-231 breast
# NCI/ADR-RES ovarian = system: NCI/ADR-RES ovarian
# ACHN renal = system: ACHN renal
# HCT-116 colon = system: HCT-116 colon
# HOP-62 NSCLC = system: HOP-62 NSCLC
# OVCAR-3 ovarian = system: OVCAR-3 ovarian
# SNB-19 CNS = system: SNB-19 CNS
# BT-549 breast = system: BT-549 breast
# TK-10 renal = system: TK-10 renal
# MALME-3M melanoma = system: MALME-3M melanoma
SMILES,GI50 (MDA-MB-231 breast) [µM],TGI (MDA-MB-231 breast) [µM],GI50 (NCI/ADR-RES ovarian) [µM],TGI (NCI/ADR-RES ovarian),GI50 (ACHN renal) [µM],TGI (ACHN renal),GI50 (HCT-116 colon) [µM],TGI (HCT-116 colon) [µM],GI50 (HOP-62 NSCLC) [µM],TGI (HOP-62 NSCLC),GI50 (OVCAR-3 ovarian) [µM],TGI (OVCAR-3 ovarian),GI50 (SNB-19 CNS) [µM],TGI (SNB-19 CNS),GI50 (BT-549 breast),TGI (BT-549 breast),GI50 (TK-10 renal),TGI (TK-10 renal),GI50 (MALME-3M melanoma) [µM],TGI (MALME-3M melanoma) [µM]
CC(C)(C)CC(C)(C)N(CSc1ccc(Cl)cc1)CSc1ccc(Cl)cc1,0.486,2.2,2.42,> 100 µM,2.56,11.4 µM,1.42,5.85,0.57,10.8 µM,1.78,4.25 µM,2.14,19.9 µM,,,,,,
COc1cc(-c2nc(-c3nnc(-c4ccc(F)c(Cl)c4)o3)c3ccccn23)cc(OC)c1OC,2.15,14.7,1.88,5.24 µM,,,,,2.19,4.57 µM,2.76,8.69 µM,1.93,5.36 µM,1.67 µM,4.46 µM,2.4 µM,5.9 µM,,
COc1cc[c]([Sb]([Br])([CH]=C(C)C)([CH]=C(C)C)[CH]=C(C)C)cc1,,,,,21.7,> 100 µM,4.78,73.7,29.5,> 100 µM,,,5.4,78.9 µM,,,18.8 µM,> 100 µM,2.28,> 100
NC(=S)N/N=C1\C(=O)N(CCc2ccccc2)C(=O)C1C(=O)NCCc1ccccc1 (stereo not given),,,,,,> 100 µM,,> 100,,> 100 µM,,> 100 µM,,> 100 µM,,,,> 100 µM,,> 100
COc1ccc2c(c1)C(=O)c1c-2c(OCCN(C)C)nc2cc(OC)ccc12,1.42,3.88,0.695,4.2 µM,0.532,1.9 µM,0.344,1.41,2.02,8.04 µM,1.59,4.06 µM,1.12,6.24 µM,4.03 µM,15.2 µM,3.14 µM,13.7 µM,,
O=C(O)c1c([N+](=O)[O-])cc(C(F)(F)F)cc1[N+](=O)[O-],,,,,,> 100 µM,,> 100,,> 100 µM,,> 100 µM,,> 100 µM,,,,> 100 µM,,
COc1cc(CNc2nc3cc(N)cc(N)c3nc2-c2ccccc2)cc(OC)c1OC,7.3,15.2,10.2,21.8 µM,5.33,11.2 µM,9.84,19.1,17.1,> 50 µM,1.15,3.42 µM,7.22,20.8 µM,3.84 µM,11.2 µM,6.25 µM,17.9 µM,,
O=[N+]([O-])c1cccc(/C=C/c2ccccn2)c1,23,> 100,22.9,> 100 µM,5.81,> 100 µM,7.02,> 100,40.7,> 100 µM,12.4,> 100 µM,39,> 100 µM,,,,,37.5,> 100
C/C(=C1/N=C(c2ccccc2)OC1=O)c1ccc(C)cc1,,> 100,,,,> 100 µM,,> 100,,> 100 µM,,> 100 µM,,> 100 µM,,> 100 µM,,> 100 µM,,> 100
CCCCNC(=O)OCC(COc1ccccc1OC)OC(=O)NCCCC (stereo not given),,,,,,> 100 µM,,> 100,,> 100 µM,,> 100 µM,,> 100 µM,,,,> 100 µM,,> 100
COc1ccc(C(=O)Nc2ccc(S(=O)(=O)NCC(=O)O)cc2)cc1,,,,,,> 100 µM,,,,,,> 100 µM,,> 100 µM,,,,> 100 µM,,> 100
C=CC[N+]1(CCO)CCN=C1CCCCCCCCCCCCC (stereo not given),1.61,3.1,1.65,3.01 µM,,,1.4,2.69,1.72,3.09 µM,,,1.63,2.99 µM,1.76 µM,3.24 µM,1.99 µM,3.4 µM,1.6,3.18
COc1cc(OC)cc(-c2ccc(-c3ccc(C(=N)N)s3)s2)c1,0.8,2.62,1.75,3.58 µM,1.45,3.25 µM,0.318,1.22,1.81,3.47 µM,1.81,3.76 µM,1.72,3.69 µM,,,1.84 µM,3.39 µM,1.25,3.28
CCN1/C(=C/C=C/C=C/c2sc3ccccc3[n+]2CC)Sc2ccccc21,0.302,1.48,2.99,16.7 µM,0.566,3.28 µM,0.181,0.828,0.42,1.54 µM,0.331,1.18 µM,0.35,1.89 µM,0.213 µM,1.18 µM,0.472 µM,3.97 µM,,
COc1ccc2nc3ccccc3c(NCCCCCN(CCCl)CCCl)c2c1,,,,,,0.748 µM,,,,0.525 µM,,0.963 µM,,0.914 µM,,,,1.38 µM,,
Cc1coc2c1CC1OC1(C)CCC1OC1(C)C2 (stereo not given),,> 100,,> 100 µM,,> 100 µM,,> 100,,> 100 µM,,> 100 µM,,> 100 µM,,> 100 µM,,> 100 µM,,
COC1=C(C)C(=O)C2=C(C1=O)C(CO)N1C(C#N)C3CC4C(C1C2N1CCOC41)N3C (stereo not given),,1.37,,0.45 µM and 0.182 µM,0.00277,3.54 µM and 10.6 µM,,,0.00557,0.973 µM and 0.902 µM and 3.34 µM,,0.168 µM and 0.0383 µM and < 0.02 µM,,8.15 µM and 5.65 µM and 13.6 µM,0.00373 µM and 0.0232 µM and < 0.01 µM,0.00951 µM and 0.0873 µM and < 0.0111 µM,0.247 µM and 0.0437 µM,4.05 µM and 15.6 µM,,
O=c1c2cc(Br)ccc2nc(-c2ccccc2)n1NCC1(O)OCC(O)C(O)C1O (stereo not given),,,,,,> 100 µM,,> 100,,> 100 µM,,> 100 µM,,> 100 µM,,,,,,> 100
